Assay results reported in US20090203708A1, “NOVEL SUBSTITUTED-1-H-QUINAZOLINE-2,4-DIONE DERIVATIVES, PREPARATION METHOD THEREOF AND PHARMACEUTICAL COMPOSITION CONTAINING THE SAME” (Korea Research Institute of Chemical Technology, priority 2006, published 2009).

Assays:
[1] = biological target: T1, HeLa cells transfected with human 5-HT6 receptor (Homo sapiens, UniProt P50406); assay: Serotonin-stimulated cAMP accumulation in HeLa cells (EIA); type: cell-based; conditions: for effect on serotonin-stimulated cAMP accumulation (in words): HeLa cells, FIG. 1
T1 construct: expressed in transfected cells; host or cells: HeLa
T1 sequence (P50406 whole entry): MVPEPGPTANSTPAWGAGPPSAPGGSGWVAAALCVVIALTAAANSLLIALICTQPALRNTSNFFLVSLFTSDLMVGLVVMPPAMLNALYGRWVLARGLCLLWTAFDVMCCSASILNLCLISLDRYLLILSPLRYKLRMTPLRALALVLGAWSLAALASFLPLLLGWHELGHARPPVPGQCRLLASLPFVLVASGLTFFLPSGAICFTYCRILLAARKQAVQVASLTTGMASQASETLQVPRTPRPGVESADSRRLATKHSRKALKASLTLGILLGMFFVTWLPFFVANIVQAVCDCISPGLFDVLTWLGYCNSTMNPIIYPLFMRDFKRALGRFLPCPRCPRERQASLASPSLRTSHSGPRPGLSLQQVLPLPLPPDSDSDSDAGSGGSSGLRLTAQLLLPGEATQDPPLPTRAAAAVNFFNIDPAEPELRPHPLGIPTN

[2] = biological target: human serotonin 5-HT6 receptor (Homo sapiens, UniProt P50406); assay: [3H]LSD binding assay for cloned 5-HT6 receptors
human serotonin 5-HT6 receptor, sequence (P50406 whole entry): as above

[3] = biological target: T2, 5-HT2c (human recombinant receptor, CHO-K1) (Homo sapiens, UniProt P28335); assay: Radioligand binding assay, 5-HT2c
T2 sequence (P28335 33-458): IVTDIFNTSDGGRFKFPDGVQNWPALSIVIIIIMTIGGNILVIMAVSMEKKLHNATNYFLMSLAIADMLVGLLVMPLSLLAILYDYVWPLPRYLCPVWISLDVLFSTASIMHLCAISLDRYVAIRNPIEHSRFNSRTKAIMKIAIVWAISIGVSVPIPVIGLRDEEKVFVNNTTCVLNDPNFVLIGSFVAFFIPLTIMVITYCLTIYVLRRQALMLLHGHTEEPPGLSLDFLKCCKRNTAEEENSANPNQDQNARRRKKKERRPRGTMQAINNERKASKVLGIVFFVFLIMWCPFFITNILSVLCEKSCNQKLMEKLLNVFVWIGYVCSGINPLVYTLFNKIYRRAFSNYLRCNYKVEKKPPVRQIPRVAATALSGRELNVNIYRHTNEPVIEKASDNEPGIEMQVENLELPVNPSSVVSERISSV

[4] = biological target: T3, D2 (hD2L receptor) (Homo sapiens, UniProt P14416); assay: Radioligand binding assay, dopamine D2; conditions: [3H] spiperone 1 nM; read-out: Binding affinity IC50 D2
T3 construct: purchased BioSignal Packard Inc., Montreal, Canada
T3 sequence (P14416 whole entry): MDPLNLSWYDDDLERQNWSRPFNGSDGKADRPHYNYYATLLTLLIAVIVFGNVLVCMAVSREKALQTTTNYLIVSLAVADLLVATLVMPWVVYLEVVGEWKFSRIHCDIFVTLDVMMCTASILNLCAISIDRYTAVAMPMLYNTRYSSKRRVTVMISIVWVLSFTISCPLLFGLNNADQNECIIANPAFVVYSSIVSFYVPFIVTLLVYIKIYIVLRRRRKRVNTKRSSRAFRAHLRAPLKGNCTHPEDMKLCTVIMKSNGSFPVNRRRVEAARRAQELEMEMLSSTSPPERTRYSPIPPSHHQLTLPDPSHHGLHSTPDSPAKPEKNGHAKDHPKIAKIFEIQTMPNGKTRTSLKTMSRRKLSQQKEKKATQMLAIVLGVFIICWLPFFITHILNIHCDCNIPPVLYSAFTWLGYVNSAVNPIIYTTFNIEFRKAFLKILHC
Experimental: (§1) Radioligand binding assays for dopamine receptor family (D1, D2 and D3) were performed according to the protocols provided by the manufacturer of receptor membranes (BioSignal Packard Inc., Montreal, Canada). The radioligands used were [^3H] spiperone (for hD2L and hD3 receptors, 1 nM) and [^3H] YM-09151-2 (hD4.2 receptor, 0.06 nM). Briefly, the buffer used in the D1, D2 and D3 receptor binding assay was 50 mM Tris-HCl (pH 7.4), containing 10 mM MgCl2 and 1 mM EDTA, or 50 mM Tris-HCl (pH 7.4), containing 5 mM MgCl2, 5 mM EDTA, 5 mM KCl, 1.5 mM CaCl2 and 120 mM NaCl. For [^3H] YM-09151-2 receptor binding assays, 50 mM Tris-HCl (pH 7.4) containing 5 mM MgCl2, 5 mM EDTA, 5 mM KCl and 1.5 mM CaCl2, was used as a buffer. Nonspecific binding was determined with haloperidol (10 μM) for D2 and D3 and clozapine (10 μM) for D4 receptors.
(§2) Competition binding studies were carried out with 7-8 concentrations of the test compound run in duplicate tubes, and isotherms from three assays were calculated by computerized nonlinear regression analysis (GraphPad Prism Program, San Diego, […]) to yield median inhibitory concentration (IC50) values.

[5] = biological target: T4, D4 (hD4.2 receptor) (Homo sapiens, UniProt P21917, DEL265-296); assay: Radioligand binding assay, dopamine D4; conditions: [3H] YM-09151-2 0.06 nM; read-out: Binding affinity IC50 D4
T4 construct: purchased BioSignal Packard Inc., Montreal, Canada
T4 sequence (P21917 with tags, fused parts or gaps DEL265-296): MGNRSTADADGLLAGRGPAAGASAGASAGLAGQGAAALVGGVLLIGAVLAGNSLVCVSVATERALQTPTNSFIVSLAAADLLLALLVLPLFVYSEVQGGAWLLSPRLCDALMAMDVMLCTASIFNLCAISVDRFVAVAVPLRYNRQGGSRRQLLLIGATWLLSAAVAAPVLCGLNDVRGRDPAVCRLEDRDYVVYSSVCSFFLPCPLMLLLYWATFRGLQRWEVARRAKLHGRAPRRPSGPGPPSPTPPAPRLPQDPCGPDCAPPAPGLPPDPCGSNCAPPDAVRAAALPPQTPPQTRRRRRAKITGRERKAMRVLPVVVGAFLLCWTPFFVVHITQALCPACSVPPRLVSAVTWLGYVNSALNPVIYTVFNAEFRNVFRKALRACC
Experimental: as §1, §2

[6] = biological target: T5, 5-HT1a (human recombinant receptor, CHO-K1) (Homo sapiens, UniProt P08908); assay: Radioligand binding assay, 5-HT1a
T5 sequence (P08908 1-422): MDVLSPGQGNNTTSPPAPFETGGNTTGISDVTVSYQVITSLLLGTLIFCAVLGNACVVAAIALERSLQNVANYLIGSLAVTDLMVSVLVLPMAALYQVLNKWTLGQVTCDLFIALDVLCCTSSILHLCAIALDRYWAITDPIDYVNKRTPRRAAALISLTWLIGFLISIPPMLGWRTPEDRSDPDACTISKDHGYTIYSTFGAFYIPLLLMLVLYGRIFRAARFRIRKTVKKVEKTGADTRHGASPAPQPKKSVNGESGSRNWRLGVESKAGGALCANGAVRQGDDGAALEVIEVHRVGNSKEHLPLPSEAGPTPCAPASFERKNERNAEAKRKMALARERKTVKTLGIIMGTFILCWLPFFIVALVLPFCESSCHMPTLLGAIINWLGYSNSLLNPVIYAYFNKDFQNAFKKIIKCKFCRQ

[7] = biological target: D3 (hD3 receptor) (Homo sapiens, UniProt P35462); assay: Radioligand binding assay, dopamine D3
D3 (hD3 receptor), sequence (P35462 whole entry): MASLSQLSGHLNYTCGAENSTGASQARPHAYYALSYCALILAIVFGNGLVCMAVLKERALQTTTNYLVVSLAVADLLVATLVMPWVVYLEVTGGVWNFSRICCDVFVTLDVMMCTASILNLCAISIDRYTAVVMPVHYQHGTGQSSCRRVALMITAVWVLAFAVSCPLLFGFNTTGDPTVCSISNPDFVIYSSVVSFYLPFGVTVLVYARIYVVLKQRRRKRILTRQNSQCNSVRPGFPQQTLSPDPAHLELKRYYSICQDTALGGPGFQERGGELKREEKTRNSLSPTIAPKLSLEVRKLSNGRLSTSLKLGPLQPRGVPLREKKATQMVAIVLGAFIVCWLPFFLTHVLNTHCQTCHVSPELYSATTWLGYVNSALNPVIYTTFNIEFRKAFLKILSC

[8] = biological target: 5-HT2a (human recombinant receptor, CHO-K1) (Homo sapiens, UniProt P28223); assay: Radioligand binding assay, 5-HT2a
5-HT2a (human recombinant receptor, CHO-K1), sequence (P28223 whole entry): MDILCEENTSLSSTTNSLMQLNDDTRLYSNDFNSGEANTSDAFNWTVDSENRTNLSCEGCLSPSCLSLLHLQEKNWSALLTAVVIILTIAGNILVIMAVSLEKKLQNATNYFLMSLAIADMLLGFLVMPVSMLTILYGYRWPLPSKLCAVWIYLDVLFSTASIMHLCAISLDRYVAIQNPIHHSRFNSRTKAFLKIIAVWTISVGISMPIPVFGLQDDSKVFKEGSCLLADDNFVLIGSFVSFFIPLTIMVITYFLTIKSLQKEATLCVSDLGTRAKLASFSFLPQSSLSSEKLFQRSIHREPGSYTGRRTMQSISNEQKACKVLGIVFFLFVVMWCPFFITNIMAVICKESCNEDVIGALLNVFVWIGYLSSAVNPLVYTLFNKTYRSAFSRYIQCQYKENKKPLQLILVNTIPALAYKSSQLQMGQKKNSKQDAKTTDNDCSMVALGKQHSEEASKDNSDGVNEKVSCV

[9] = biological target: 5-HT7 (human recombinant receptor, CHO-K1) (Homo sapiens, UniProt P34969); assay: Radioligand binding assay, 5-HT7
5-HT7 (human recombinant receptor, CHO-K1), sequence (P34969 whole entry): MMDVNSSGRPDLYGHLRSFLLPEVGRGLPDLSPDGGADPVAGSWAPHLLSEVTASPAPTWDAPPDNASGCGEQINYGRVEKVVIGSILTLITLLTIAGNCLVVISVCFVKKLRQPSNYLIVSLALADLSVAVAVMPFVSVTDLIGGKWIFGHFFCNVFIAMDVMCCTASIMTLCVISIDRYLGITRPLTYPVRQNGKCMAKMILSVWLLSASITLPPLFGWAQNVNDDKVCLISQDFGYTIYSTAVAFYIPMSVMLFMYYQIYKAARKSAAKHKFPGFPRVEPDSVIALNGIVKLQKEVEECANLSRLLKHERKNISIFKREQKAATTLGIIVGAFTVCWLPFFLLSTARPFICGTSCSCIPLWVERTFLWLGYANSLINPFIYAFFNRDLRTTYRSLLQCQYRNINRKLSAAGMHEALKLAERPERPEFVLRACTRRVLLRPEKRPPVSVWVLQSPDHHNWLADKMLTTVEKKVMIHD

[10] = biological target: D1 receptor (Homo sapiens, UniProt P21728); assay: Radioligand binding assay, dopamine D1
D1 receptor, sequence (P21728 whole entry): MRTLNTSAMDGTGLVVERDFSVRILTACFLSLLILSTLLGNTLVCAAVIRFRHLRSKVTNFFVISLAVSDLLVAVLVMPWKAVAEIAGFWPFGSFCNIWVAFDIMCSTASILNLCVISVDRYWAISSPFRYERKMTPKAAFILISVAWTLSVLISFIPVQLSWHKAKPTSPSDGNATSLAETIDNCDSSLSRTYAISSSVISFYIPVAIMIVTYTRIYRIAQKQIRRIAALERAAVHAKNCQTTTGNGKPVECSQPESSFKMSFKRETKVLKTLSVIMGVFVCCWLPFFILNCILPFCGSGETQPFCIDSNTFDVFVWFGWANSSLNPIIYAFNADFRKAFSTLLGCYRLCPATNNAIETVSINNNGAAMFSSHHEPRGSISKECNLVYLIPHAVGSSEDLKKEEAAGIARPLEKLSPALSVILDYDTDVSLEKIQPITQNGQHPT

| SMILES | antagonist activity compared with methiothepin [1] | effect on serotonin-stimulated cAMP accumulation (in words) [1] | IC50 [2] [µM] | melting point [°C] | IC50 [3] [µM] | IC50 [4] [µM] | IC50 [5] [µM] | IC50 [6] [µM] | IC50 [7] [µM] | IC50 [8] [µM] | IC50 [9] [µM] | IC50 [10] [µM] |
| --- | --- | --- | --- | --- | --- | --- | --- | --- | --- | --- | --- | --- |
| CN1CCN(c2cc(Cl)cc3c2c(=O)n(C)c(=O)n3Cc2ccccc2)CC1 [Example 1, 1-benzyl-7-chloro-3-methyl-5-(4-methyl-piperazin-1-yl)-1H-quinazoline-2,4-dione] | weaker antagonist activity than methiothepin | identified as 5-HT6 receptor antagonists | 0.003 | 173 to 175 | – | – | – | – | – | – | – | – |
| CN1CCN(c2cc(Cl)cc3c2c(=O)n(Cc2ccc(F)cc2)c(=O)n3Cc2ccccc2)CC1 [Example 13, 1-benzyl-7-chloro-3-(4-fluoro-benzyl)-5-(4-methyl-piperazin-1-yl)-1H-quinazoline-2,4-dione] | weaker antagonist activity than methiothepin | identified as 5-HT6 receptor antagonists | 0.0015 | 110 to 114 | 1.8 | > 10 | > 10 | 2.77 | 2.38 | 1.39 | 8.64 | – |
| CN1CCN(c2cc(Cl)cc3c2c(=O)n(Cc2ccccc2[N+](=O)[O-])c(=O)n3Cc2ccccc2)CC1 [Example 31, 1-benzyl-7-chloro-5-(4-methyl-piperazin-1-yl)-3-(2-nitro-benzyl)-1H-quinazoline-2,4-dione] | – | – | 0.0014 | 164 to 169 | 0.952 | > 10 | > 10 | 2.24 | 1.24 | 0.049 | > 10 | – |
| CN1CCN(c2cc(Cl)cc3c2c(=O)n(Cc2cccc([N+](=O)[O-])c2)c(=O)n3Cc2ccccc2)CC1 [Example 32, 1-benzyl-7-chloro-5-(4-methyl-piperazin-1-yl)-3-(3-nitro-benzyl)-1H-quinazoline-2,4-dione] | – | – | 0.0006 | 200 to 205 | 1.56 | > 10 | > 10 | 3.8 | 0.276 | 1.8 | > 10 | – |
| C[C@@H](c1ccccc1)n1c(=O)c2c(N3CCN(C)CC3)cc(Cl)cc2n(Cc2ccccc2)c1=O [Example 41, 1-benzyl-7-chloro-5-(4-methyl-piperazin-1yl)-3-[(S)-1-phenyl-ethyl]-1H-quinazoline-2,4-dione] | – | – | 0.005 | – | 0.865 | 0.744 | > 10 | > 10 | 0.362 | 0.16 | 2.74 | > 10 |
| Cc1cc(C)cc(CCCn2c(=O)c3c(N4CCN(C)CC4)cc(Cl)cc3n(Cc3ccccc3)c2=O)c1 [Example 44, 1-benzyl-7-chloro-3-[3-(3,5-dimethyl-phenyl)-propyl]-5-(4-methyl-piperazin-1-yl)-1H-quinazoline-2,4-dione] | – | – | 0.002 | 67 to 73 | 2.65 | 0.987 | > 10 | 2.78 | 0.073 | 0.197 | > 10 | – |
| Cc1ccc(Cn2c(=O)c3c(N4CCN(C)CC4)cc(Cl)cc3n(Cc3ccccc3)c2=O)o1 [Example 47, 1-benzyl-7-chloro-3-(5-methyl-furan-2-ylmethyl)-5-(4-methyl-piperazin-1-yl)-1H-quinazoline-2,4-dione] | – | – | 0.0014 | 132 to 136 | 0.465 | > 10 | > 10 | 1.14 | 2.81 | 0.83 | 8.74 | – |
| CN1CCN(c2cc(Br)cc3c2c(=O)n(Cc2ccccc2)c(=O)n3Cc2ccccc2)CC1 [Example 54, 1,3-dibenzyl-7-bromo-5-(4-methyl-piperazin-1-yl)-1H-quinazoline-2,4-dione] | – | – | 0.0023 | 80 to 84 | 0.646 | > 10 | > 10 | 5.01 | 0.554 | 0.376 | > 10 | – |
| CN1CCN(c2cc(Br)cc3c2c(=O)n(Cc2ccccc2Cl)c(=O)n3Cc2ccccc2)CC1 [Example 55, 1-benzyl-7-bromo-3-(2-chloro-benzyl)-5-(4-methyl-piperazin-1-yl)-1H-quinazoline-2,4-dione] | – | – | 0.0015 | 104 to 108 | 0.252 | > 10 | > 10 | 2.72 | 1.44 | 0.13 | 5.14 | – |
| O=c1c2c(N3CCNCC3)cc(Cl)cc2n(Cc2ccccc2)c(=O)n1Cc1ccccc1F [Example 58, 1-benzyl-7-chloro-3-(2-fluoro-benzyl)-5-piperazin-1-yl-quinazoline-2,4-dione] | – | – | 0.0006 | 98 to 109 | 0.54 | > 10 | > 10 | 2.85 | 3.13 | 0.22 | > 10 | – |
| O=c1c2c(N3CCNCC3)cc(Cl)cc2n(Cc2ccccc2)c(=O)n1Cc1ccccc1Cl [Example 59, 1-benzyl-7-chloro-3-(2-chloro-benzyl)-5-piperazin-1-yl-1H-quinazoline-2,4-dione] | – | – | 0.0017 | 120 to 125 | 0.198 | > 10 | > 10 | 2.16 | 0.381 | 0.132 | 7.33 | – |
| C[C@@H](c1ccccc1)n1c(=O)c2c(N3CCNCC3)cc(Cl)cc2n(Cc2ccccc2)c1=O [Example 69, 1-benzyl-7-chloro-3-[(S)-1-phenyl-ethyl]-5-piperazin-1yl-1H-quinazoline-2,4-dione] | – | – | 0.0027 | – | 0.429 | > 10 | > 10 | 5.87 | 1.8 | 0.293 | 7.89 | 8.62 |
